Measurements published in patent publication US20230303552A1, “ARYLSULFONYL DERIVATIVES AND THEIR USE AS MUSCARINIC ACETYLCHOLINE RECEPTOR M5 INHIBITORS” (Vanderbilt University, priority 2020, published 2023).

Molecular target: T1, human M5 receptors (hM5) (Homo sapiens, UniProt P08912)
T1 construct: expressed in transfected cells
T1 sequence (P08912 1-532): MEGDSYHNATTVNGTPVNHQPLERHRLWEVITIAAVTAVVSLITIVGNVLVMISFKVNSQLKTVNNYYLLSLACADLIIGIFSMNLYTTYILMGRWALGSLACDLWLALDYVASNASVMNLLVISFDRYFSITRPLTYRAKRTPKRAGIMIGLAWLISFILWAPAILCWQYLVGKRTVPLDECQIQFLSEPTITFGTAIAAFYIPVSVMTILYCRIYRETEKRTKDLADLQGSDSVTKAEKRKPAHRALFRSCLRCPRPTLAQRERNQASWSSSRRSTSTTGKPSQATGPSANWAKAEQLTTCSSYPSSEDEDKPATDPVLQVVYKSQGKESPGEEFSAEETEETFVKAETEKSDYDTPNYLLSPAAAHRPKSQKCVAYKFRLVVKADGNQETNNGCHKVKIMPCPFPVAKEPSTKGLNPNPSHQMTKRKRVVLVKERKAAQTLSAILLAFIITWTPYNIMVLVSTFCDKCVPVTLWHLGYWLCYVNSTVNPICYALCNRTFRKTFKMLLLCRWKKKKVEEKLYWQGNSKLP
Experiment: Cell-based functional calcium mobilization assay of mAChR M5 activity (inhibition of EC80 acetylcholine response) in CHO cells
Conditions: CHO cells stably expressing hM5; for IC50: calcium flux (Fluo-4), EC80 acetylcholine addition; for EC80 MIN: minimum of EC80 acetylcholine response, normalized to maximum acetylcholine response
How it was run: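 CHO cells stably expressing human M5, loaded with Fluo-4 AM in HBSS/20 mM HEPES/2.5 mM probenecid pH 7.4. Compound added 140 s before acetylcholine EC20, then EC80 added 125 s later. Calcium flux normalized to maximal acetylcholine response; IC50 from ten-point curves in the EC80 window.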

Row | IC50 | EC80 MIN | SMILES
1 | 2550 nM | 2% | O=C(Nc1ccc2scnc2c1)C1CCN(S(=O)(=O)c2cccc(F)c2)CC1 [Compound 63, N-(benzo[d]thiazol-5-yl)-1-((3-fluorophenyl)sulfonyl)piper idine-4-carboxamide]
2 | 895 nM | 2% | O=C(Nc1ccc2scnc2c1)[C@@H]1CCN(S(=O)(=O)c2cc(I)c3c(c2)CCO3)C1 [Compound 74, (R)-N-(benzo[d]thiazol-5-yl)-1((7-iodo-2,3-dihydrobenzofuran-5-yl)sulfonyl)pyrrolidine-3-carboxamide]
3 | 76 nM | 3% | C[C@H]1CN(S(=O)(=O)c2ccc3c(c2)CCO3)C[C@@H]1C(=O)Nc1ccc2scnc2c1 [Compound 78]
4 | 1460 nM | 3% | Cc1cc(S(=O)(=O)N2CC[C@@H](C(=O)Nc3ccc4scnc4c3)C2)cc2c1OCC2 [Compound 83, (R)-N-(benzo[d]thiazol-5-yl)-1-((7-methyl-2,3-dihydrobenzofuran-5-yl)sulfonyl)pyrrolidine-3-carboxamide]
5 | > 10000 nM | – | CN(C(=O)C1CCN(S(=O)(=O)c2ccc3c(c2)CCO3)CC1)c1ccc2scnc2c1 [Compound 84, N-(Benzo[d]thiazol-5-yl)-1-((2,3-Dihydrobenzofuran-5-yl)Sulfonyl)-N-Methylpiperidine-4-Carboxamide]
6 | 1750 nM | 3% | CC(=O)N(C(=O)C1CCN(S(=O)(=O)c2ccc3c(c2)CCO3)CC1)c1ccc2scnc2c1 [Compound 85, N-Acetyl-N-(Benzo[d]thiazol-5-yl)-1-((2,3-Dihydrobenzofuran-5-yl)Sulfonyl)Piperidine-4-Carboxamide]
7 | > 10000 nM | 79% | O=C(Nc1cnc2cc[nH]c2c1)C1CCN(S(=O)(=O)c2ccc3c(c2)CCO3)CC1 [Compound 89, 1-((2,3-dihydrobenzofuran-5-yl)sulfonyl)-N-(1H-pyrrolo[3,2-b]pyridin-6-yl)piperidine-4-carboxamide]
8 | > 10000 nM | 69% | O=C(Nc1cnc2[nH]ccc2c1)C1CCN(S(=O)(=O)c2ccc3c(c2)CCO3)CC1 [Compound 90, 1-((2,3-dihydrobenzofuran-5-yl)sulfonyl)-N-(1H-pyrrolo[2,3-b]pyridin-5-yl)piperidine-4-carboxamide]
9 | 138 nM | 17% | Cc1nc2cc(NC(=O)C3CCN(S(=O)(=O)c4ccc5c(c4)CCO5)CC3)ccc2s1 [Compound 91, 1-((2,3-Dihydrobenzofuran-5-yl)Sulfonyl)-N-(2-Methylbenzo[d]thiazol-5-yl)Piperidine-4-Carboxamide]
10 | 129 nM | 14% | O=C(Nc1ccc2snnc2c1)C1CCN(S(=O)(=O)c2ccc3c(c2)CCO3)CC1 [Compound 100]
11 | > 10000 nM | 49% | Cc1cc2scnc2cc1NC(=O)C1CCN(S(=O)(=O)c2ccc3c(c2)CCO3)CC1 [Compound 101, 1-((2,3-dihydrobenzofuran-5-yl)sulfonyl)-N-(6-methylbenzo[d]thiazol-5-yl)piperidine-4-carboxamide]
12 | > 10000 nM | 56% | O=C(Nc1cnc2scnc2c1)C1CCN(S(=O)(=O)c2ccc3c(c2)CCO3)CC1 [Compound 102, 1-((2,3-dihydrobenzofuran-5-yl)sulfonyl)-N-(thiazolo[5,4-b]pyridin-6-yl)piperidine-4-carboxamide]
13 | > 10000 nM | 3% | CC1(C(=O)Nc2ccc3scnc3c2)CCN(S(=O)(=O)c2ccc3c(c2)CCO3)CC1 [Compound 104, N-(benzo[d]thiazol-5-yl)-1-((2,3-dihydrobenzofuran-5-yl)sulfonyl)-4-methylpiperidine-4-carboxamide]
14 | > 10000 nM | 53% | Cn1cnc2cc(NC(=O)C3CCN(S(=O)(=O)c4ccc5c(c4)CCO5)CC3)ccc21 [Compound 110, 1-((2,3-dihydrobenzofuran-5-yl)sulfonyl)-N-(1-methyl-1H-benzo[d]imidazol-5-yl)piperidine-4-carboxamide]
15 | 38 nM | 3% | C[C@@H]1CN(S(=O)(=O)c2ccc3c(c2)CCO3)C[C@@H]1C(=O)Nc1ccc2scnc2c1 [Compound 111, (3R,4S)-N-(benzo[d]thiazol-5-yl)-1-((2,3-dihydrobenzofuran-5-yl)sulfonyl)-4-methylpyrrolidine-3-carboxamide]
16 | 712 nM | 10% | O=C(Nc1ccc2scnc2c1)C1(F)CCN(S(=O)(=O)c2ccc3c(c2)CCO3)CC1 [Compound 113, N-(benzo[d]thiazol-5-yl)-1-((2.3-dihydrobenzofuran-5-yl)sulfonyl)-4-fluoropiperidine-4-carboxamide]
17 | 105 nM | 3% | Cc1ccc(S(=O)(=O)N2CCC(C(=O)Nc3ccc4scnc4c3)CC2)cn1 [Compound 124]

More lines, now with the values behind:

Row | SMILES | IC50 | EC80 MIN
18 | COc1ccc(S(=O)(=O)N2CCC(C(=O)Nc3ccc4scnc4c3)CC2)c(C)c1 [Compound 62, N-(benzo[d]thiazol-5-yl)-1-((4-methoxy-2-methylphenyl)sulfonyl)pipe ridine-4-carboxamide] | > 10000 nM | 22%
19 | O=C(Nc1ccc2scnc2c1)C1CCN(S(=O)(=O)c2ccccc2C(F)(F)F)CC1 [Compound 64, N-(benzo[d]thiazol-5-yl)-1-((2-(trifluoromethyl)phenyl)sulfonyl)piperidine-4-carboxamide] | > 10000 nM | 2%
20 | O=C(Nc1ccc2scnc2c1)C1CCN(S(=O)(=O)c2ccccc2Cl)CC1 [Compound 65, N-(benzo[d]thiazol-5-yl)-1-((2-chlorophenyl)sulfonyl)piper idine-4-carboxamide] | 652 nM | 2%
21 | O=C(Nc1ccc2scnc2c1)C1CCN(S(=O)(=O)c2ccc(Cl)cc2)CC1 [Compound 66, N-(benzo[d]thiazol-5-yl)-1-((4-chlorophenyl)sulfonyl)piper idine-4-carboxamide] | > 10000 nM | 16%
22 | O=C(Nc1ccc2scnc2c1)C1CCN(S(=O)(=O)c2ccc(F)cc2)CC1 [Compound 67, N-(benzo[d]thiazol-5-yl)-1-((4-fluorophenyl)sulfonyl)piper idine-4-carboxamide] | > 10000 nM | 7%
23 | O=C(Nc1ccc2scnc2c1)C1CCN(S(=O)(=O)c2ccccn2)CC1 [Compound 68, N-(benzo[d]thiazol-5-yl)-1-(pyridin-2-ylsulfonyl)piperidine-4-carboxamide] | > 10000 nM | 39%
24 | O=C(Nc1ccc2scnc2c1)[C@@H]1CCN(S(=O)(=O)c2ccc(Cl)nc2)C1 [Compound 76, (R)-N-(benzo[d]thiazol-5-yl)-1-((6-chloropyridin-3-yl)sulfonyl)pyrrolidine-3-carboxamide] | > 10000 nM | 23%
25 | CC1(C(=O)Nc2ccc3scnc3c2)CCN(S(=O)(=O)c2ccc3ncsc3c2)CC1 [Compound 105, N-(benzo[d]thiazol-5-yl)-1-(benzo[d]thiazol-6-ylsulfonyl)-4-methylpiperidine-4-carboxamide] | > 10000 nM | 25%
26 | CC1(C(=O)Nc2ccc3scnc3c2)CCN(S(=O)(=O)c2ccc(Cl)nc2)CC1 [Compound 106, N-(benzol[d]thiazol-5-yl)-1-((6-chloropyridin-3-yl)sulfonyl)-4-methylpiperidine-4-carboxamide] | > 10000 nM | 35%
27 | CC1(C(=O)Nc2ccc3scnc3c2)CCN(S(=O)(=O)c2cccc3nsnc23)CC1 [Compound 107, 1-(benz.o[c][1.2.5]thiadiazol-4-ylsulfony1)-N-(benzo[d]thiazol-5-yl)-4-methylpiperidine-4-carboxamide] | > 10000 nM | 24%
28 | O=C(Nc1ccc2scnc2c1)C1(F)CCN(S(=O)(=O)c2ccc3ncsc3c2)CC1 [Compound 108] | > 10000 nM | 22%
29 | Cc1nn(C)cc1S(=O)(=O)N1CCC(F)(C(=O)Nc2ccc3scnc3c2)CC1 [Compound 109, N-(benzo[d]thiazol-5-yl]-1-((1,3-dimethyl-1H-pyrazol-4-yl)sulfonyl)-4-fluoropiperidine-4-carboxamide] | > 10000 nM | 9%
30 | Cc1nn(C)cc1S(=O)(=O)N1CCC(C)(C(=O)Nc2ccc3scnc3c2)CC1 [Compound 112, N-(benzo[d]thiazol-5-yl)-1-((1,3-dimethyl-1H-pyrazol-4-yl)sulfonyl)-4-methylpiperidine-4-carboxamide] | > 10000 nM | 58%
31 | O=C(Nc1ccc2scnc2c1)C1(F)CCN(S(=O)(=O)c2cccnc2)CC1 [Compound 114, N-(benzo[d]thiazol-5-yl)-4-fluoro-1-(pyridin-3-ylsulfonyl)piperidine-4-carboxamide] | 2040 nM | 4%
32 | O=C(Nc1ccc2scnc2c1)C1(F)CCN(S(=O)(=O)c2cccc3nsnc23)CC1 [Compound 115, 1-(benzo[c][1,2,5]thiadiazol-4-ylsulfonyl)-N-(benzo[d]thiazol-5-yl)-4-fluoropiperidine-4-carboxamide] | > 10000 nM | 51%
